Assay results from article PMC10218941, “Design, Synthesis, Antiproliferative Actions, and DFT Studies of New Bis–Pyrazoline Derivatives as Dual EGFR/BRAF^V600E Inhibitors” (International Journal of Molecular Sciences, 2023).
Several values for one entry are separate records, joined by “and”; a condition that tells them apart may be missing. Equal values may be shown once. Read-outs that look alike come from different tables or passages of the source.

How the values were obtained:
[1] = test system: four human cancer cell lines (A-549, MCF-7, Panc-1, HT-29); experiment: Antiproliferative assay, mean of four cancer cell lines (GI50); format: cell-based; conditions: mean over A-549, MCF-7, Panc-1, HT-29
[2] = test system: A-549 (lung cancer cell line); experiment: Antiproliferative assay (MTT), A-549; format: cell-based; conditions: Homo sapiens, A549; read-out: Antiproliferative Activity IC50 ± SEM (µM) A-549
Procedure: (§1) The antiproliferative activity of pyrazoline hybrids 8–17 was tested against the four human cancer cell lines Panc-1 (pancreatic cancer cell line), MCF-7 (breast cancer cell line), HT-29 (colon cancer cell line), and A-549 (lung cancer cell line) using the MTT assay and doxorubicin as the reference drug. See Appendix SA (Supplementary File).
(§2) 4.2. Biological evaluation
(§3) 4.2.1. Cytotoxic activity using MTT Assay and evaluation of IC50 […]
(§4) 96-well flat-bottomed cell culture plates were used to seed the cells at a […]
(§5) of 10^4 cells mL-1. The medium was aspirated from all the wells of culture plates after 24 h followed by the addition of synthesized compounds (in 200 μL medium to yield a final concentration of 0.1% (v/v) dimethyl sulfoxide) into individual wells of the plates. Four wells were designated to a single compound. The plates were allowed to incubate at 37°C for 96 h. Afterwards, the medium was aspirated and 3 -[4,5-dimethylthiazol-2-yl]-2,5-diphenyltetrazolium bromide (MTT) (0.4 mg/mL) in medium was added to each well and subsequent ly incubated for 3 h. The medium was aspirated and 150 μL dimethyl sulfoxide (DMSO) was added to each well. The plates were vortexed followed by the measurement of absorbance at 540 nm on a microplate reader. The results were presented as inhibition (%) of proliferation in contrast to controls comprising 0.1% 4.2.1.2. Assay for antiproliferative effect
(§6) To explore the antiproliferative potential of compounds propidium iodide fluorescence assay was performed using different cell lines such as Panc -1 (pancreas cancer cell line), MCF-7 (breast cancer cell line), HT-29 (colon cancer cell line) and A-549 (epithelial cancer cell line), respectively. To calculate the total nuclear DNA, a fluorescent dye (propidium iodide, PI) is used which can attach to the DNA, thus offering a quick and precise technique. PI cannot pass through the cell membrane and its signal intensity can be considered as directly proportional to quantity of cellular DNA. Cells whose cell membranes are damaged or have changed permeability are counted as dead ones. The assay was performed by seeding the cells of different cell lines at a density of 3000-7500 cells/well (in200μl medium) in culture plates followed by incubation for 24h at 37 °C in humidified 5%CO2/95% air atmospheric conditions. The medium was removed; the compounds were added to the plates at 10 μM concentrations (in 0.1% DMSO) in triplicates, followed by incubation for 48h. DMSO (0.1%) was used as control. After incubation, medium was removed followed by the addition of PI (25 μl, 50μg/mL in water/medium) to each well of the plates. At - 80 °C, the plates were allowed to freeze for 24 h, followed by thawing at 25 °C. A fluorometer (Polar-Star BMG Tech) was used to record the readings at excitation and emission wavelengths of 530 and 620 nm for each well. The percentage cytotoxicity of compounds was calculated using […]
(§7) Where ATC= Absorbance of treated cells and AC= Absorbance of control. Erlotinib was used as positive control in the assay. […]

[3] = test system: Panc-1 (pancreatic cancer cell line); experiment: Antiproliferative assay (MTT), Panc-1; format: cell-based; conditions: Homo sapiens, read-out: Antiproliferative Activity IC50 ± SEM (µM) Panc-1
Procedure: as §1, with “File). […]” for “File).”
(§8) 4.2.1.2. Assay for antiproliferative effect
as §6, §7

[4] = Cell viability assay (MTT) on normal mammary epithelial cells; format: cell-based; conditions: human, MCF-10A normal mammary gland epithelial cells, MCF-10A cells, four days
Procedure: To test the viability of new substances, the epithelial (MCF-10A) cell line of the normal human mammary gland was used. Compounds 8–17 were incubated for four days on MCF-10A cells before being tested for viability using the MTT assay. According to Table 1, none of the substances tested were cytotoxic, and cell viability at 50 µM was greater than 87% for the compounds tested.
The normal human mammary gland epithelial (MCF-10A) cell line was used to test the viability of new compounds [46, 47]. See Appendix SA (Supplementary File).
as §2
4.2.1. Cytotoxic activity using MTT Assay and evaluation of IC50
MTT assay was performed to investigate the effect of the synthesized compounds on mammary epithelial cells (MCF-10A). The cells were propagated in medium consisting of Ham's F-12 medium/ Dulbecco's modified Eagle's medium (DMEM) (1:1) supplemented with 10% foetal calf serum, 2 mM glutamine, insulin (10 μg/mL), hydrocortisone (500 ng/mL) and epidermal growth factor (20 ng/mL). Trypsin ethylenediamine tetra acetic acid (EDTA) was used to passage the cells after every 2-3 days. 96-well flat-bottomed cell culture plates were used to seed the cells at a […]
as §5, with “The results were presented as inhibition (%) of proliferation in contrast to controls comprising 0.1% 4.2.1.2. Assay for antiproliferative effect” left out

[5] = test system: MCF-7 (breast cancer cell line); experiment: Antiproliferative assay (MTT), MCF-7; format: cell-based; conditions: Homo sapiens, MCF7; read-out: Antiproliferative Activity IC50 ± SEM (µM) MCF-7
Procedure: as §1, §2, §3, §4, §5, §6, §7

[6] = test system: HT-29 (colon cancer cell line); experiment: Antiproliferative assay (MTT), HT-29; format: cell-based; conditions: Homo sapiens, read-out: Antiproliferative Activity IC50 ± SEM (µM) HT-29
Procedure: as §1, with “File). […]” for “File).”
as §8, §6, §7

EGFR [7] = molecular target: T1, EGFR (Homo sapiens, UniProt P00533); experiment: EGFR inhibitory assay; format: biochemical; conditions: read-out: EGFR Inhibition IC50 ± SEM
T1 construct: 645–1186); His6 (N); made in house; host or cells: Sf-9 insect cells (baculovirus; pBlueBacHis2B / pFASTBacHTc
Procedure: 4.2.2. EGFR inhibitory assay
Baculoviral expression vectors including pBlueBacHis2B and pFASTBacHTc were used […]
(1 picture or pasted object on this page, not shown here)
5ʹ upstream to the EGFR sequence comprised a sequence that encoded (His)6. Sf-9 cells were infected for 72h for protein expression. The pellets of Sf-9 cells were solubilized in a buffer containing sodium vanadate (100 μM), aprotinin (10 μg/mL), triton (1%), HEPES […]
centrifugation for 20 min.
Histidine-linked proteins were first eluted with 250 and then […]
enhancement solution was added to each well and the signal was recorded at excitation and […]
The autophosphorylation percentage inhibition by compounds was calculated using the following equation: […]

BRAF^V600E [8] = experiment: BRAF^V600E inhibitory assay
Target sequence in this assay (P28028 whole entry V585E): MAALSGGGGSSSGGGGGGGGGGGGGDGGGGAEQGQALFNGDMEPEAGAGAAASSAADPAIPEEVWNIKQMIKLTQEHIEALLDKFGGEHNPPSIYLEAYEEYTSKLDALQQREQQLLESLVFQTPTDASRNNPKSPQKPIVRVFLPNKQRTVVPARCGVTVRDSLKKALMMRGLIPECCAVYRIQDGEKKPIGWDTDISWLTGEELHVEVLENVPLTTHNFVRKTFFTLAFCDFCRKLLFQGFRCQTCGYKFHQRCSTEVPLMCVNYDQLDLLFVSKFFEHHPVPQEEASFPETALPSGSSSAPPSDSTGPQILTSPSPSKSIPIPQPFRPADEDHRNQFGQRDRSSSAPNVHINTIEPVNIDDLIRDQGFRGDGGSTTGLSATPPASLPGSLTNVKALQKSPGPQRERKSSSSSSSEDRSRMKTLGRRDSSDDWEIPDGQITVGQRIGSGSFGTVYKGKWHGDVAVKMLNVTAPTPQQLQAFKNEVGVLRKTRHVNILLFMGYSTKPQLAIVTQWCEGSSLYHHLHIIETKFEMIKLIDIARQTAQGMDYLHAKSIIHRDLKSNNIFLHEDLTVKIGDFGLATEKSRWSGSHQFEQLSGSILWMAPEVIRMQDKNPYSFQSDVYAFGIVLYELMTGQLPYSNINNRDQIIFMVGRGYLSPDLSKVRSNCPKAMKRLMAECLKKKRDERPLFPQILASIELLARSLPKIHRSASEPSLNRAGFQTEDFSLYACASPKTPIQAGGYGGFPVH
Procedure: V600E mutant BRAF kinase assay was performed to investigate the activity of tested compounds against BRAF. Mouse full-length GST-tagged BRAFV600E (7.5 ng, Invitrogen, PV3849) was pre-incubated with drug (1 µL) and assay dilution buffer (4 µL) for 60 min at 25 °C. In assay dilution buffer, a solution (5 µL) containing MgCl2 (30 mM), ATP (200 µM), recombinant human full length (200 ng) and N-terminal His-tagged MEK1 (Invitrogen) was added to start the assay, subsequent to incubation for 25 min at 25 °C. The assay was stopped using 5X protein denaturing buffer (LDS) solution (5 µL). To further denature the protein, heat (70° C) was applied for 5 min.
10 µL of each reaction was loaded into the precast plates and electrophoresis was allowed to proceed. After completion of electrophoresis, the front part of the precast gel plate (holding hot ATP) was cut and afterwards cast-off. The dried gel was developed using a phosphor screen.
served as positive control.

EGFR [9] = molecular target: T1, EGFR; design: method as in PMID 35424523; conditions: cited from earlier work
BRAF^V600E [10] = test system: BRAF^V600E; design: method as in PMID 35424523; conditions: cited from earlier work

T1 sequence (P00533 669-1210): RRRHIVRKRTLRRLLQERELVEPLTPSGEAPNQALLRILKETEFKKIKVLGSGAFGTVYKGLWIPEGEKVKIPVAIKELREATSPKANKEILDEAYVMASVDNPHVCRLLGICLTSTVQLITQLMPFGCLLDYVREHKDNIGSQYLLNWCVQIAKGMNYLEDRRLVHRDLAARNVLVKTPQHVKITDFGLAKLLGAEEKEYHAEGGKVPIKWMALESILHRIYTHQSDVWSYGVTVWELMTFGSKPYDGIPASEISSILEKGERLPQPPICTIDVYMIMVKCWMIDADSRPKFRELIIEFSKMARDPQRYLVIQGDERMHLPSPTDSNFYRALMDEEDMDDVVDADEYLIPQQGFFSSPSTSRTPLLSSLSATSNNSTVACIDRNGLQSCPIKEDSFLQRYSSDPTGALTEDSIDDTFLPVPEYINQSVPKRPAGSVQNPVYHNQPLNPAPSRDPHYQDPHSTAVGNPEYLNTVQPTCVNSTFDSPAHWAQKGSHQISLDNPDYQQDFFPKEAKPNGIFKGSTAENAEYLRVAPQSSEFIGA

| Compound | IC50 [1] [nM] | IC50 [2] [µM] | IC50 [3] [µM] | viability at 96 h, 50 µM [4] [%] | IC50 [5] [µM] | IC50 [6] [µM] | IC50 (EGFR [7]) [nM] | IC50 (BRAF^V600E [8]) [nM] | IC50 (EGFR [9]) | IC50 (BRAF^V600E [10]) |
| --- | --- | --- | --- | --- | --- | --- | --- | --- | --- | --- |
| O=C(COc1ccc(C2=NNC(c3ccc(Cl)cc3)C2)cc1)Nc1ccc(C2=NNC(c3ccccc3)C2)cc1 (stereo not shown) [Compound 8, 2-(4-(5-(4-Chlorophenyl)-4,5-dihydro-1H-pyrazol-3-yl)phenoxy)-N-(4-(5-phenyl-4,5-dihydro-1H-pyrazol-3-yl)phenyl)acetamide] | 4400 | 4.3 ± 0.4 | 4.6 ± 0.4 | 90 | 4.1 ± 0.4 | 4.5 ± 0.4 | – | – | – | – |
| COc1ccc(C2CC(c3ccc(NC(=O)COc4ccc(C5=NNC(c6ccc(Cl)cc6)C5)cc4)cc3)=NN2)cc1 (stereo not shown) [Compound 9, 2-(4-(5-(4-Chlorophenyl)-4,5-dihydro-1H-pyrazol-3-yl)phenoxy)-N-(4-(5-(4-methoxyphenyl)-4,5-dihydro-1H-pyrazol-3-yl)phenyl)acetamide] | 2300 | 2.2 ± 0.2 | 2.6 ± 0.2 | 89 | 1.9 ± 0.1 | 2.5 ± 0.2 | – | – | – | – |
| O=C(COc1ccc(C2=NNC(c3ccc(Cl)cc3)C2)cc1)Nc1ccc(C2=NNC(c3ccc(Br)cc3)C2)cc1 (stereo not shown) [Compound 10, 2-(4-(5-(4-Chlorophenyl)-4,5-dihydro-1H-pyrazol-3-yl)phenoxy)-N-(4-(5-(4-bromophenyl)-4,5-dihydro-1H-pyrazol-3-yl)phenyl)acetamide] | 3100 | 3.2 ± 0.3 | 3.2 ± 0.3 | 89 | 2.9 ± 0.2 | 3.1 ± 0.3 | – | – | – | – |
| O=C(COc1ccc(C2=NNC(c3ccc(Cl)cc3)C2)cc1)Nc1ccc(C2=NNC(c3ccc(Cl)cc3)C2)cc1 (stereo not shown) [Compound 11, 2-(4-(5-(4-Chlorophenyl)-4,5-dihydro-1H-pyrazol-3-yl)phenoxy)-N-(4-(5-(4-chlorophenyl)-4,5-dihydro-1H-pyrazol-3-yl)phenyl)acetamide] | 2900 | 2.9 ± 0.2 | 2.9 ± 0.2 | 87 | 2.7 ± 0.2 | 3 ± 0.2 | – | – | – | – |
| COc1ccc(C2CC(c3ccc(OCC(=O)Nc4ccc(C5=NNC(c6ccc(C)cc6C)C5)cc4)cc3)=NN2)cc1 (stereo not shown) [Compound 13, 2-(4-(5-(4-Methoxyphenyl)-4,5-dihydro-1H-pyrazol-3-yl)phenoxy)-N-(4-(5-(2,4-dimethylphenyl)-4,5-dihydro-1H-pyrazol-3-yl)phenyl)acetamide] | 4800 | 4.8 ± 0.4 | 4.9 ± 0.4 | 87 | 4.6 ± 0.4 | 5 ± 0.4 | – | – | – | – |
| COc1ccc(C2CC(c3ccc(OCC(=O)Nc4ccc(C5=NNC(c6ccc(Br)cc6)C5)cc4)cc3)=NN2)cc1 (stereo not shown) [Compound 14, 2-(4-(5-(4-Methoxyphenyl)-4,5-dihydro-1H-pyrazol-3-yl)phenoxy)-N-(4-(5-(4-bromophenyl)-4,5-dihydro-1H-pyrazol-3-yl)phenyl)acetamide] | 1850 | 1.8 ± 0.1 | 2 ± 0.1 | 89 | 1.6 ± 0.1 | 2 ± 0.1 | 104 ± 9 | 125 ± 10 | – | – |
| COc1ccc(C2CC(c3ccc(OCC(=O)Nc4ccc(C5=NNC(c6ccc(Cl)cc6)C5)cc4)cc3)=NN2)cc1 (stereo not shown) [Compound 15, 2-(4-(5-(4-Methoxyphenyl)-4,5-dihydro-1H-pyrazol-3-yl)phenoxy)-N-(4-(5-(4-chlorophenyl)-4,5-dihydro-1H-pyrazol-3-yl)phenyl)acetamide] | 1500 | 1.4 ± 0.1 | 1.7 ± 0.1 | 90 | 1.2 ± 0.1 | 1.7 ± 0.1 | 93 ± 7 | 98 ± 8 | – | – |
| COc1ccc(C2CC(c3ccc(OCC(=O)Nc4ccc(C5=NNC(c6ccc(F)cc6)C5)cc4)cc3)=NN2)cc1 (stereo not shown) [Compound 16, 2-(4-(5-(4-Methoxyphenyl)-4,5-dihydro-1H-pyrazol-3-yl)phenoxy)-N-(4-(5-(4-fluorophenyl)-4,5-dihydro-1H-pyrazol-3-yl)phenyl)acetamide] | 3700 | 3.7 ± 0.3 | 3.8 ± 0.3 | 89 | 3.5 ± 0.3 | 3.9 ± 0.3 | – | – | – | – |
| COc1cccc2c1C(=O)c1c(O)c3c(c(O)c1C2=O)C[C@@](O)(C(=O)CO)C[C@@H]3O[C@H]1C[C@H](N)[C@H](O)[C@H](C)O1 [Doxorubicin, reference compound] | 1100 | 1.4 ± 0.08 | 1 ± 0.02 | – | 0.9 ± 0.02 | 1.2 ± 0.03 | – | – | – | – |
| Cc1c(Nc2nc3c(C(=O)NN)c(N)sc3s2)c(=O)n(-c2ccccc2)n1C [II] | – | – | – | – | – | – | – | – | 20 nM | 88 nM and 90 nM |
| Cc1c(NC2=NC(=O)CS2)c(=O)n(-c2ccccc2)n1C [I] | – | – | – | – | – | – | – | – | 22 nM and 20 nM | 2030 nM |
